The values below are quoted from earlier work in patent US20060234297A1, “Screening method” (priority 2003, published 2006).

In series [1] the test system is mouse macrophages stimulated with phorbol ester or tumor necrosis factor (TNF-α).
The subject of series [2] is progression of arteriosclerosis. The settings on record: clinical study.

As to `CCOC(=O)C1=C(C)NC(C)=C(C(=O)OCC)C1c1ccccc1/C=C/C(=O)OC(C)(C)C` [lacidipine], the “MMP-9 secretion and production” value in series [1] was “suppressed MMP-9 secretion and production”. In addition, the “effect on the progression of arteriosclerosis” value in series [2] is reported as “suppressive effect on the progression of arteriosclerosis”.
